Earlier results as cited in patent publication US20220288056A1, “PHARMACEUTICAL COMPOSITION CONTAINING NITROXOLINE, NITROXOLINE ORAL SOLID TABLET, PREPARATION METHOD THEREFOR AND USE THEREOF” (Jiangsu Yahong Meditech Co., Ltd., priority 2019, published 2022).

Tests used:
[1] = biological target: T1, methionine aminopeptidase MetAP2 (Homo sapiens, UniProt P50579); conditions: vascular endothelial cells
T1 construct: host or cells: vascular endothelial cells

[2] = biological target: T2, silence information regulator 2-related enzyme SIRT1 (Homo sapiens, UniProt Q96EB6); conditions: vascular endothelial cells
T2 construct: host or cells: vascular endothelial cells
T2 sequence (Q96EB6 1-747): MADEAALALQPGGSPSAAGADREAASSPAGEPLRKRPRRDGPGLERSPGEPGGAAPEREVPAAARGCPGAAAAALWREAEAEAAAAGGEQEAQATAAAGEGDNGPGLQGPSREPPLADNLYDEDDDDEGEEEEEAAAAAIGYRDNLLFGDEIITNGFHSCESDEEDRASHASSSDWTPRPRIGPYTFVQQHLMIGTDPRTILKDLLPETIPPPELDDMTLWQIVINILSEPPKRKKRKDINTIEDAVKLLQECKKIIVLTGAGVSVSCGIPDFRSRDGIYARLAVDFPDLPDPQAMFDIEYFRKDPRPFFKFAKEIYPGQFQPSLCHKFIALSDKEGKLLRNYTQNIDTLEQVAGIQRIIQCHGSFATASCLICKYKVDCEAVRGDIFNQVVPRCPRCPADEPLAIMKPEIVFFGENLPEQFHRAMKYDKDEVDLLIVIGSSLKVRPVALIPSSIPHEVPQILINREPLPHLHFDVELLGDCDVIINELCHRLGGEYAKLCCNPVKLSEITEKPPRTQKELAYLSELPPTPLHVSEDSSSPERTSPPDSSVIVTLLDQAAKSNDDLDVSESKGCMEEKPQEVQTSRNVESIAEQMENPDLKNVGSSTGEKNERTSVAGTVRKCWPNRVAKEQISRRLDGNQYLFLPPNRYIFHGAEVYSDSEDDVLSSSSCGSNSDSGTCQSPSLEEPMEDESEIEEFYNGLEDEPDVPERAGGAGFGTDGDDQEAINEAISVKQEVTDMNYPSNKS

T1 sequence (P50579 whole entry): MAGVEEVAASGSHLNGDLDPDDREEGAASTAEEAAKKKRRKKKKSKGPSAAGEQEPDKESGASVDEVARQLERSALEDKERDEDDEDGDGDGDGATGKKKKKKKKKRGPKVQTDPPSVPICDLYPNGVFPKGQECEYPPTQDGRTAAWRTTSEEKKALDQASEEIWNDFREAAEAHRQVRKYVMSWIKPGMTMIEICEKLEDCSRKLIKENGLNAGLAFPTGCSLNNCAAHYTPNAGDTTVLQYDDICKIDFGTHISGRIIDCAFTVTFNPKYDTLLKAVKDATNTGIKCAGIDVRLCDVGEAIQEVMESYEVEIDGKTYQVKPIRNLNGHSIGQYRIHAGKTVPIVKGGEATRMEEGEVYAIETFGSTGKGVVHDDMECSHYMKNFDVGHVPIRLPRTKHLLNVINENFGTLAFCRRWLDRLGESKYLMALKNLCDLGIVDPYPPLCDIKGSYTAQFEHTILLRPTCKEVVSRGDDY

O=[N+]([O-])c1ccc(O)c2ncccc12 [Nitroxoline, 5-nitro-8-hydroxyquinoline]
inhibition of MetAP2 [1]: inhibit | inhibition of SIRT1 [2]: inhibit
